Our source for the Activity, IC50 and inhibition values is ChEMBL document CHEMBL5120920, “A Mitochondria-Targeted Phenylbutyric Acid Prodrug Confers Drastically Improved Anticancer Activities” (J Med Chem, 2022).

Structures are written as SMILES. pIC50: −log10 of the molar value. Calls of active or inactive are those of the source. The calls are words filed in the database; no cut-off is given here.

A short description of data set [1]: Toxicity in BALB/c mouse at 200 mg/kg, iv administered for 7 days. As to conditions: in vivo, 168 h, time 7 day. It counts as organism-based.
The test system of data set [2] is A-375. In words: Antitumor activity against human A-375 cells implanted in BALB/c mouse assessed as shrinkage of tumor tissue at 40 mg/kg, ip measured once every two days for 14 days. The class given is functional, organism-based. As to conditions: time 14.0 day.
The test system of data set [3] is A-375. In words: Cytotoxicity against human A-375 cells assessed as reduction in cell vaibility measured at 24 hrs in absence of BNPP by MTT assay. As to conditions: A-375, 24 h. The class given is functional, cell-based. In general terms: Tetrazolium dyes change colour on reduction, which living cells bring about.
The target of data set [4] is Histone deacetylase (Homo sapiens) (UniProt Q13547+O15379+Q9UBN7+Q92769+Q9UQL6+Q8WUI4+Q9BY41+Q96DB2+P56524+Q9UKV0+Q969S8). In words: Inhibition of HDAC in human A-375 cells assessed as upregulation of histone-H3 acetylation at 5 to 20 uM measured after 24 hrs. The following applies: dose 5-20 µM. The class given is cell-based.
A short description of data set [5]: Toxicity in BALB/c mouse assessed as change in body weight at 100 mg/kg, iv administered for 7 days and measured once per 2 days. It counts as organism-based. The following applies: in vivo, 168 h, time 7 day.

In general, pIC50 refers to −log10 of the IC50, conventionally taken in molar units. Consider `O=C(CCCCCCCCC[P+](c1ccc(C(F)(F)F)cc1)(c1ccc(C(F)(F)F)cc1)c1ccc(C(F)(F)F)cc1)NC(COC(=O)CCCc1ccccc1)(COC(=O)CCCc1ccccc1)COC(=O)CCCc1ccccc1.[Br-]`, for which the Activity result in data set [1] and in data set [5] was “Non-Toxic” in each case. In addition, in the data set on A-375 [2], the result was Active. Also, the pIC50 in the data set on A-375 [3] is 5.22. Moreover, the inhibition entry in data set [4] was “Active”.
